Patent US20180326080A1, “POLYMER-BASED THERAPEUTICS FOR INDUCTIVE BROWNING OF FAT” (Purdue Research Foundation, priority 2015, published 2018)

Key:
[1] = system: cultured white adipocytes; assay: Notch inhibition and brown fat gene expression in cultured white adipocytes; format: cell-based; details: vs DMSO
From the text: (§1) Pharmacological inhibition of Notch signaling induces browning of white adipocytes during in vitro culture. Notch signaling is inhibited in cultured white adipocytes with the γ-secretase inhibitor DAPT (N—[N-(3,5-difluorophenacetyl)-1-alanyl]-S-phenylglycine t-butyl ester).

[2] = system: cultured white adipocytes; assay: Oxygen consumption rate of adipocytes treated with DAPT; format: cell-based; details: vs adipocytes treated with DMSO
From the text: as §1

[3] = system: diet induced obese (DIO) mouse model; assay: Local injection of DBZ-NPs into inguinal WAT of diet-induced obese mice; format: in vivo; details: in solution and nontargeted NP forms, vs nontreated obese mice
Procedure: All procedures regarding animal maintenance and experimental use were performed according to the regulation presented by Purdue University's Animal Care and Use Committee. 10-week-old male die-induced obese (DIO) mice with the C57BL/6 background were purchased from Taconic and housed under normal condition at Purdue University. High-fat diet (Research Diets #D12492, 60% fat) was used to induce and maintain obesity in the mice. Mice with average body weight of 36 g at 14 weeks started to receive nanoparticle treatment. […]
For GTT, mice were intraperitoneally injected with 100 mg/ml D-glucose (2 g kg-1 body weight) after 16 h fasting. Blood was drawn from tails and glucose levels were measured by a glucometer (Accu-Check Active, Roche). […] Glucose concentrations were measured in the blood drawn from tails. […]
Serum levels of free fatty acids, glucose, cholesterol, and triglycerides from fasted DIO mice after treatment of nanoparticles for 5 weeks were examined by standard kits from Randox Laboratories. The insulin level in the serum was measured by ELISA according to the manufacturer's instructions (ALPCO). […]
Total RNA was extracted from cells or tissues through Trizol (Life Technologies) in accordance with the manufacture's protocol. […] The quantitative PCR was performed on the Roche Light Cycler 96 PCR System (Roche). […]

Structure (SMILES) | Notch signaling (mRNA levels of Notch targets) [1] | expression of brown fat specific genes Ucp1, Cidea, Prdm16 and Ppargc1a [1] | oxygen consumption rate (OCR) [2] | body weight gain [3]
C[C@H](NC(=O)Cc1cc(F)cc(F)c1)C(=O)N[C@H](C(=O)OC(C)(C)C)c1ccccc1 [DAPT, (N—[N-(3,5-difluorophenacetyl)-1-alanyl]-S-phenylglycinet-butyl ester)] | inhibited Notch signaling | upregulated | higher | –
CN(CCOc1ccc(CC2SC(=O)NC2=O)cc1)c1ccccn1 (stereo not shown) [Rosi] | – | – | – | no difference in body weight gain
